The record followed here is US5246940A, “Substituted N-biphenylyl lactams” (Ortho Pharmaceutical Corporation, priority 1993, dated 1993).

Where a name gives a salt, the structure may show the parent alone. Read-outs that look alike come from different tables or passages of the source.

Test [1] concerns Angiotensin Receptor. The test can be described thus: Screening Potential Angiotensin Receptor Antagonists in Salt-Depleted Normotensive Rats (blood pressure after oral dosing). It is filed as in vivo, Sprague-Dawley rats. The settings on record: oral, salt-depleted normotensive rats; active = MAP decrease of 10 or more mmHg vs concurrent control. The source says: Test Procedure for Screening Potenital Angiotensin Receptor Antagonists in Salt-Depleted Normotensive Rats
Purpose: This test is designed to detect hypotensive effects of a compound after oral dosing in normotensive animals made renin-dependent by salt depletion. [Wong, P. C., Price, W. A., Chiu, A. T., Duncia, J. V., Carini, D. J., Wexler, R. R., Johnson, A. L., and Timmermans, P. B. M. W. M.: Nonpeptide angiotensin II receptor antagonists. VIII. […] J. Pharmacol. Exp. Ther., 252,726 (1990)]
Solution Preparation: Oral 50 mg/kg furosemide doses are prepared from 10 mg/mL solutions of the intravenous pharmaceutical preparation (Lasix injection, Hoechst-Roussel Pharmaceutical). Test compound is uniformly suspended in 1% methylcellulose.
Method: Male 350-450 g Sprague-Dawley rats are implanted with teflon microcannulae via the middle caudal artery under 20 mg/kg intravenous brevital anesthesia and permitted a 4-7 day surgical recovery period. Throughout recovery and testing animals are individually housed unrestrained in standard rat metabolism cages and receive continuous 0.5 mL/hour intra-arterial 0.25 N saline infusion through a spring-shielded swivelling tether connected to an infusion/blood pressure recording system to maintain arterial cannula patency. Animals are maintained on Low Sodium (0.03%) Pruina Rat Chow #5881 throughout the study. After the recovery period animals are given oral 50 mg/kg furosemide (Lasix, Hoechst-Roussel Pharmaceutical) doses on two consecutive days to produce marked diuresis and plasma volume depletion that makes maintenance of normal blood pressure highly dependent on function of the renin-angiotensin-aldosteronesystem. Three hours after the second furosemide dose, rats are given test compound uniformly suspended in 1% methylcellulose (n=3/dose level) or 1 mL 1% methylcellulose vehicle (n=3) orally by gavage and blood pressure is continuously recorded for 24 h using a Buxco computerized data recording system. Compound-induced changes in blood pressure are compared to concurrent vehicle control blood pressures in order to detect drug effect.
Interpretation: Prior to salt depletion, normotensive rats typically show a plasma renin activity (PRA), measured by Radioimmuno Assay (RIA) of Angiotensin I (as ng Angiotensin I/mL plasma/hour) and yields a RIA of 0.7. After the salt-depletion protocol PRA values taken 3 hour after the furosemide dose have risen to about 7.4. […] PRA is increased by this DuP-753 treatment to about 41.4.
Compounds that decrease blood pressure 10 or more mmHg (MAP) compared to concurrent control after oral dosing are considered active in this test. Maximum possible response is about-35 mmHg. See results in Table 2.

In test [2] the target is T1, angiotensin II-induced vasoconstriction (Oryctolagus cuniculus, UniProt P34976).
T1 sequence (P34976 1-359): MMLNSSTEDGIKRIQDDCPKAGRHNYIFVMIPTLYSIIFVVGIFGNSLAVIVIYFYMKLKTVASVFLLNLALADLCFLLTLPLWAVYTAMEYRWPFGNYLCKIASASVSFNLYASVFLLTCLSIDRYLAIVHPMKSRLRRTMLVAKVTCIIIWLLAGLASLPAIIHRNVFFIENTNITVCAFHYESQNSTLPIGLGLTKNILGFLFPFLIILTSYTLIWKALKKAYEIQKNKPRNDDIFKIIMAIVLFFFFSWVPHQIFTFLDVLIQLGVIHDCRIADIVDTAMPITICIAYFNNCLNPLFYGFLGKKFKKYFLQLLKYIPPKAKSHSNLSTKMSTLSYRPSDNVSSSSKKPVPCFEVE
Description: Inhibition of Angiotensin II Dose-Response in Rabbit Thoracic Aorta. More on the design: from tissue; host or cells: thoracic aorta rings of New Zealand white rabbits; species or system New Zealand white rabbits. To be noted: for inhibition at 10 µM: read-out: % Inh @ 10^-5 M; for EC90: contraction, 95% C.L. in brackets. On the procedure: VII. Cellular and Biochemical pharmacology of DuP 753, an orally active antihypertensive agent. J. Pharmacol. Exp. Ther., 252, 726 (1990)]
Test compounds are diluted in dimethylsulfoxide vehicle such that a 50 μL addition to the tissue bath produces a final bath concentration of 1×10^-5 M compound in Krebs-bicarbonate buffer (baths contain 15 mL Krebs-bicarbonate buffer).
Procedure: 1.8 to 2.3 kg New Zealand white rabbits are sacrificed with an intravenous sodium pentobarbital overdose and the thoracic aorta gently dissected free from the aortic root to the level of the diaphragm, into ice cold Krebs bicarbonate buffer. The aorta is gently freed of clots and adventitia and cleanly cut into 5 mm segments. Each ring is suspended from a Gould isotonic force transducer in a tissue bath containing 15 mL oxygenated Krebs bicarbonate buffer regulated at 37° C. Initial tenison is adjusted to 4.0 g and equilibrated over three 20-minute wash periods with fresh Krebs-bicarbonate buffer to achieve a baseline tension of 3.0 g. […] […] […] In addition, since the test compounds are dissolved in DMSO, DMSO alone is tested in two rings as a vehicle control in each screening experiment.

Test [3] concerns the target T1, angiotensin II-induced vasoconstriction. The test can be described thus: Angiotensin II Antagonist Dose-Response in Rabbit Thoracic Aorta (Schild plot). More on the design: from tissue; host or cells: thoracic aorta rings of New Zealand white rabbits; species or system New Zealand white rabbits. The settings on record: for Kb: read-out: pA2 (converted). The source says: Angiotensin II Antagonist Dose-Response in Rabbit Thoracic Aorta Purpose: […] [Chiu, […]., Price, W. A., Wong, […]., Duncia, […]., Yoo, S. E., Johnson, A. L., and […].: Nonpeptide angiotensin II receptor antagonists. VII. Cellular and Biochemical pharmacology of […], an orally active antihypertensive agent. J. Pharmacol. Exp. Ther., 252,726 (1990)]. Solution Preparation: […] For each test an aliquot is freshly thawed and serially diluted with Krebs bicarbonate buffer to provide stock solutions of angiotensin II in buffer for addition to the tissue baths. […] Procedure: 1.8 to 2.3 kg New Zealand white rabbits are sacrificed with an intravenous sodium pentobarbital overdose and the thoracic aorta gently dissected free from the aortic root to the level of the diaphragm, into ice cold Krebs bicarbonate buffer. The aorta is gently freed of clots and adventitia and cleanly cut into 5 mm segments. Each ring is suspended from a Gould isotonic force transducer in a tissue bath containing 15 mL oxygenated Krebs bicarbonate buffer regulated at 37° C. […] The test compound is then given to separate rings at different antagonist concentrations (n=2 rings/test concentration) in order to asses antagonist dose-response. The angiotensin II cumulative dose-response is then repeated in the presence of the test compound. Analysis: Angiotensin II vasoconstrictor tension in grams is expressed as a percent of maximal contraction for the before and after test compound angiotensin II dose-responses. […] See results in Table 2.

Turning to `CCOC(=O)C=C1N(Cc2ccc(-c3ccccc3-c3nnn[nH]3)cc2)C(=O)CC12CCCCC2` [ac, 5-Carbethoxymethyliden-4-spirocyclohexyl-1-[4-(2-tetrazolophenyl)benzyl]pyrrolidin-2-one Pyridinium Salt,1.2 Hydrate], the “Antihypertensive Activity (p.o.): active @ dose” value in test [1] was determined as 30 mpk. Besides, the inhibition at 10 µM in test [2] was found to be 100%. The pA2 in test [3] (Schild plot vs angiotensin II, rabbit thoracic aorta rings) was 7.93.
As for `CCOC(=O)C=C1N(Cc2ccc(-c3ccccc3-c3nnn[nH]3)cc2)C(=O)CC12CCCCCC2` [ad, 5-Carbethoxymethylidine-4-spirocycloheptyl-1-[4-(2-tetrazolophenyl)benzyl]pyrrolidin-2-one Pyridinium Salt, 1.3 Hydrate], in test [1], the “Antihypertensive Activity (p.o.): active @ dose” value turned out to be 30 mpk. Also, the inhibition at 10 µM in test [2] came out at 100%. Further, the Kb in test [3] was 4.37 nM.
As to `CCOC(=O)C=C1CC(C)(CC)CC(=O)N1Cc1ccc(-c2ccccc2-c2nnn[nH]2)cc1` (stereo not drawn) [ae, 6-Carbethoxymethyliden-4-ethyl-4-methyl-1-[4-(2-tetrazolophenyl)benzyl]piperidine-2-one Pyridinium Salt, 1.25 Hydrate], the “Antihypertensive Activity (p.o.): active @ dose” value in test [1] turned out to be 10 mpk. Also, in test [2], the inhibition at 10 µM was determined as 100%. The Kb in test [3] is 1.07 nM.
The corresponding values for `CCOC(=O)C=C1N(Cc2ccc(-c3ccccc3-c3nnn[nH]3)cc2)C(=O)CC12CCCC2` [af, 5-Carbethoxymethylidine-4-spirocyclopentyl-1-[4-(2-tetrazolophenyl)benzyl]pyrrolidin-5-one Pyridinium Salt, 1.4 Hydrate] are 30 mpk, 100% and 3.63 nM.
Consider `CCOC(=O)C=C1C2C3CCCC(CC3)C2C(=O)N1Cc1ccc(-c2ccccc2-c2nnn[nH]2)cc1` (stereo not drawn) [ag, 3-Carbethoxymethyliden-2-[4-(2-tetrazolophenyl)benzyl]-4,7-endopropylen-1,3,4,5,6,7-hexahydro-1-oxoisoindole Dihydrate], for which, in test [1], the “Antihypertensive Activity (p.o.): active @ dose” value was 30 mpk. In addition, the inhibition at 10 µM in test [2] was 100%.
With `CCOC(=O)C=C1C2C3C=CC(CCC3)C2C(=O)N1Cc1ccc(-c2ccccc2-c2nnn[nH]2)cc1` (stereo not drawn) [ah, 3-Carbethoxymethyliden-2-[4-(2-tetrazolophenyl)benzyl]-4,7-endopropylen-1,3,4,7-tetrahydro-1-oxoisoindole Pyridinium Salt, 1.75 Hydrate], the “Antihypertensive Activity (p.o.): active @ dose” value in test [1] was above 30 mpk. Besides, in test [2], the inhibition at 10 µM came out at 100%. Besides, in test [3], the Kb was 14.1 nM.
As to `CCOC(=O)C=C1C2C3C=CC(C3)C2C(=O)N1Cc1ccc(-c2ccccc2C(=O)OC)cc1` (stereo not drawn) [m, 3-Carbethoxymethyliden-2-[4-(2-carbomethoxyphenyl)benzyl]-4,7-endomethylen-1,3,4,7-tetrahydro-1-oxoisoindole], the inhibition at 10 µM in test [2] stood at 0%.
On to `CCOC(=O)C=C1C2C3C=CC(CC3)C2C(=O)N1Cc1ccc(-c2ccccc2C#N)cc1` (stereo not drawn) [p, 3-Carbethoxymethyliden-2-[4-(2-cyanophenyl)benzyl]-4,7-endoethylen-1,3,4,7-tetrahydro-1-oxoisoindole], for which the inhibition at 10 µM in test [2] came to 3%.
For `CCOC(=O)C=C1C2C3C=CC(C3)C2C(=O)N1Cc1ccc(-c2ccccc2-c2nnn[nH]2)cc1` (stereo not drawn) [v, 3-Carbethoxymethyliden-2-[4-(2-tetrazolophenyl)benzyl]-4,7-endomethylen-1,3,4,7-tetrahydro-1-oxoisoindole Pyridinium Salt], in test [2], the inhibition at 10 µM stood at 100%. Also, the Kb in test [3] was 4.47 nM.
Turning to `CCOC(=O)C=C1C2C3CCC(C3)C2C(=O)N1Cc1ccc(-c2ccccc2C(=O)OC)cc1` (stereo not drawn) [y, 3-Carbethoxymethyliden-2-[4-(2-carbomethoxyphenyl)benzyl]-4,7-endomethylen-1,3,4,5,6,7-hexahydro-1-oxoisoindole], the inhibition at 10 µM in test [2] was 0%.
Regarding angiotensin II [reference compound], the EC90 amounted to 5.88 nM in test [2] (read-out: Mean ED90 for angiotensin II after DMSO vehicle treatment, after DMSO vehicle) and 4.44 nM in test [2] (read-out: Mean ED90 for angiotensin II before DMSO vehicle treatment, before DMSO vehicle).
